# US10807986B2, “Fused pyrimidine compound or salt thereof” (TAIHO PHARMACEUTICAL CO., LTD., priority 2016, dated 2020)
# Experiment: Evaluation of stability in liver microsome
# Conditions: mouse liver microsome 0.25 mg/mL, test compound 1 μM, 37° C., 30 minutes
row,Remaining (%),SMILES
1,86%,"COCc1ccc(NC(=O)c2c(OC)n(C3(C)CC3)c3ncnc(N)c23)cc1 [Example 57, 4-amino-6-methoxy-N-[4-(methoxymethyl)phenyl]-7-(1-methylcyclopropyl)-7H-pyrrolo[2,3-d]pyrimidine-5-carboxamide]"
2,89%,"COCc1ccc(NC(=O)c2c(C(C)=O)n(C3(C)CC3)c3ncnc(N)c23)cc1 [Example 64, 6-acetyl-4-amino-N-(4-(methoxymethyl)phenyl)-7-(1-methylcyclopropyl)-7H-pyrrolo[2,3-d]pyrimidine-5-carboxamide]"
3,69%,"COCc1ccc(NC(=O)c2c(F)n(C3(C)CC3)c3ncnc(N)c23)cc1 [Example 69, 4-amino-6-fluoro-N-(4-(methoxymethyl)phenyl)-7-(1-methylcyclopropyl)-7H-pyrrolo[2,3-d]pyrimidine-5-carboxamide]"
4,66%,"COCc1ccc(NC(=O)c2c(C#CCC(C)(C)O)n(C3(C)CC3)c3ncnc(N)c23)cc1 [Example 86, 4-amino-6-(4-hydroxy-4-methylpent-1-yn-1-yl)-N-[4-(methoxymethyl)phenyl]-7-(1-methylcyclopropyl)-7H-pyrrolo[2,3-d]pyrimidine-5-carboxamide]"
5,59%,"COCc1ccc(NC(=O)c2c(C#CCN3CCCC3)n(C3(C)CC3)c3ncnc(N)c23)cc1 [Example 88, 4-amino-N-[4-(methoxymethyl)phenyl]-7-(1-methylcyclopropyl)-6-(3-(pyrrolidin-1-yl)prop-1-yn-1-yl)-7H-pyrrolo[2,3-d]pyrimidine-5-carboxamide]"
6,67%,"COCc1ccc(NC(=O)c2c(C#Cc3ccn(C)n3)n(C3(C)CC3)c3ncnc(N)c23)cc1 [Example 92, 4-amino-N-(4-(methoxymethyl)phenyl)-6-((1-methyl-1H-pyrazol-3-yl)ethynyl)-7-(1-methylcyclopropyl)-7H-pyrrolo[2,3-d]pyrimidine-5-carboxamide]"
7,53%,"COCc1ccc(NC(=O)c2c(C#Cc3cncn3C)n(C3(C)CC3)c3ncnc(N)c23)cc1 [Example 93, 4-amino-N-(4-(methoxymethyl)phenyl)-6-((1-methyl-1H-imidazol-5-yl)ethynyl)-7-(1-methylcyclopropyl)-7H-pyrrolo[2,3-d]pyrimidine-5-carboxamide]"
8,60%,"COCc1ccc(NC(=O)c2c(C#CCC3(O)CCC3)n(C3(C)CC3)c3ncnc(N)c23)cc1 [Example 103, 4-amino-6-(3-(1-hydroxycyclobutyl)prop-1-yn-1-yl)-N-(4-(methoxymethyl)phenyl)-7-(1-methylcyclopropyl)-7H-pyrrolo[2,3-d]pyrimidine-5-carboxamide]"
9,52%,"COCc1ccc(NC(=O)c2c(C#CC(O)C3CC3)n(C3(C)CC3)c3ncnc(N)c23)cc1 (stereo not shown) [Example 104, 4-amino-6-(3-cyclopropyl-3-hydroxyprop-1-yn-1-yl)-N-(4-(methoxymethyl)phenyl)-7-(1-methylcyclopropyl)-7H-pyrrolo[2,3-d]pyrimidine-5-carboxamide]"
10,52%,"COCc1ccc(NC(=O)c2c(C#CCN3CCCCC3)n(C3(C)CC3)c3ncnc(N)c23)cc1 [Example 105, 4-amino-N-[4-(methoxymethyl)phenyl]-7-(1-methylcyclopropyl)-6-(3-(piperidin-1-yl)prop-1-yn-1-yl)-7H-pyrrolo[2,3-d]pyrimidine-5-carboxamide]"
11,55%,"CCn1nccc1C#Cc1c(C(=O)Nc2ccc(COC)cc2)c2c(N)ncnc2n1C1(C)CC1 [Example 114, 4-amino-6-((1-ethyl-1H-pyrazol-5-yl)ethynyl)-N-(4-(methoxymethyl)phenyl)-7-(1-methylcyclopropyl)-7H-pyrrolo[2,3-d]pyrimidine-5-carboxamide]"

# The remaining lines, values behind:
row,SMILES,Remaining (%)
1,"COCc1ccc(NC(=O)c2c(C)n(C(C)(C)C)c3ncnc(N)c23)cc1 [Example 60, 4-amino-7-(tert-butyl)-N-(4-(methoxymethyl)phenyl)-6-methyl-7H-pyrrolo[2,3-d]pyrimidine-5-carboxamide]",81%
2,"COCc1ccc(NC(=O)c2c(-c3cccnc3)n(C3(C)CC3)c3ncnc(N)c23)cc1 [Example 61, 4-amino-N-(4-(methoxymethyl)phenyl)-7-(1-methylcyclopropyl)-6-(pyridin-3-yl)-7H-pyrrolo[2,3-d]pyrimidine-5-carboxamide]",81%
3,"C=Cc1c(C(=O)Nc2ccc(COC)cc2)c2c(N)ncnc2n1C1(C)CC1 [Example 65, 4-amino-N-(4-(methoxymethyl)phenyl)-7-(1-methylcyclopropyl)-6-vinyl-7H-pyrrolo[2,3-d]pyrimidine-5-carboxamide]",79%
4,"CC(C)(C)n1cc(C(=O)Nc2ccc(-c3cc[nH]n3)cc2)c2c(N)ncnc21 [Example 80, N-(4-(1H-pyrazol-3-yl)phenyl)-4-amino-7-(tert-butyl)-7H-pyrrolo[2,3-d]pyrimidine-5-carboxamide]",50%
5,"COCc1ccc(NC(=O)c2c(C#CC3CCOCC3)n(C3(C)CC3)c3ncnc(N)c23)cc1 [Example 87, 4-amino-N-[4-(methoxymethyl)phenyl]-7-(1-methylcyclopropyl)-6-((tetrahydro-2H-pyran-4-yl)ethynyl)-7H-pyrrolo[2,3-d]pyrimidine-5-carboxamide]",63%
6,"COCc1ccc(NC(=O)c2c(OC[C@H]3CCCO3)n(C3(C)CC3)c3ncnc(N)c23)cc1 [Example 89, (R)-4-amino-N-[4-(methoxymethyl)phenyl]-7-(1-methylcyclopropyl)-6-((tetrahydrofuran-2-yl)methoxy)-7H-pyrrolo[2,3-d]pyrimidine-5-carboxamide]",69%
7,"COCc1ccc(NC(=O)c2c(C#Cc3cnn(C)c3)n(C3(C)CC3)c3ncnc(N)c23)cc1 [Example 90, 4-amino-N-[4-(methoxymethyl)phenyl]-6-((1-methyl-1H-pyrazol-4-yl)ethynyl)-7-(1-methylcyclopropyl)-7H-pyrrolo[2,3-d]pyrimidine-5-carboxamide]",67%
8,"COCc1ccc(NC(=O)c2c(C#Cc3cnc4cccnn34)n(C3(C)CC3)c3ncnc(N)c23)cc1 [Example 91, 4-amino-6-(imidazo[1,2-b]pyridazin-3-ylethynyl)-N-[4-(methoxymethyl)phenyl]-7-(1-methylcyclopropyl)-7H-pyrrolo[2,3-d]pyrimidine-5-carboxamide]",65%
9,"COCc1ccc(NC(=O)c2c(C#Cc3cccnc3)n(C3(C)CC3)c3ncnc(N)c23)cc1 [Example 94, 4-amino-N-[4-(methoxymethyl)phenyl]-7-(1-methylcyclopropyl)-6-(pyridin-3-ylethynyl)-7H-pyrrolo[2,3-d]pyrimidine-5-carboxamide]",60%
10,"COCc1ccc(NC(=O)c2c(OC[C@@H](C)OC)n(C3(C)CC3)c3ncnc(N)c23)cc1 [Example 96, (R)-4-amino-N-(4-(methoxymethyl)phenyl)-6-(2-methoxypropoxy)-7-(1-methylcyclopropyl)-7H-pyrrolo[2,3-d]pyrimidine-5-carboxamide]",71%
11,"COCc1ccc(NC(=O)c2c(OC[C@@H]3CCCO3)n(C3(C)CC3)c3ncnc(N)c23)cc1 [Example 97, (S)-4-amino-N-(4-(methoxymethyl)phenyl)-7-(1-methylcyclopropyl)-6-((tetrahydrofuran-2-yl)methoxy)-7H-pyrrolo[2,3-d]pyrimidine-5-carboxamide]",70%
12,"COCc1ccc(NC(=O)c2c(OCC(C)C)n(C3(C)CC3)c3ncnc(N)c23)cc1 [Example 99, 4-amino-6-isobutoxy-N-(4-(methoxymethyl)phenyl)-7-(1-methylcyclopropyl)-7H-pyrrolo[2,3-d]pyrimidine-5-carboxamide]",51%
13,"COCc1ccc(NC(=O)c2c(OCC(C)OC)n(C3(C)CC3)c3ncnc(N)c23)cc1 (stereo not shown) [Example 100, 4-amino-N-(4-(methoxymethyl)phenyl)-6-(2-methoxypropoxy)-7-(1-methylcyclopropyl)-7H-pyrrolo[2,3-d]pyrimidine-5-carboxamide]",76%
14,"COCc1ccc(NC(=O)c2c(OCC3CCOC3)n(C3(C)CC3)c3ncnc(N)c23)cc1 (stereo not shown) [Example 101, 4-amino-N-(4-(methoxymethyl)phenyl)-7-(1-methylcyclopropyl)-6-((tetrahydrofuran-3-yl)methoxy)-7H-pyrrolo[2,3-d]pyrimidine-5-carboxamide]",68%
15,"COCc1ccc(NC(=O)c2c(OCC3CCCCO3)n(C3(C)CC3)c3ncnc(N)c23)cc1 (stereo not shown) [Example 102, 4-amino-N-(4-(methoxymethyl)phenyl)-7-(1-methylcyclopropyl)-6-((tetrahydro-2H-pyran-2-yl)methoxy)-7H-pyrrolo[2,3-d]pyrimidine-5-carboxamide]",60%
16,"COCc1ccc(NC(=O)c2c(/C=C/CO)n(C3(C)CC3)c3ncnc(N)c23)cc1 [Example 109, (E)-4-amino-6-(3-hydroxyprop-1-en-1-yl)-N-(4-(methoxymethyl)phenyl)-7-(1-methylcyclopropyl)-7H-pyrrolo[2,3-d]pyrimidine-5-carboxamide]",68%
17,"COCc1ccc(NC(=O)c2c(C#Cc3ccccc3OC)n(C3(C)CC3)c3ncnc(N)c23)cc1 [Example 113, 4-amino-N-(4-(methoxymethyl)phenyl)-6-((2-methoxyphenyl)ethynyl)-7-(1-methylcyclopropyl)-7H-pyrrolo[2,3-d]pyrimidine-5-carboxamide]",79%
18,"CCOc1c(C(=O)Nc2ccc(-c3ccco3)cc2)c2c(N)ncnc2n1C1(C)CC1 [Example 116, 4-amino-6-ethoxy-N-(4-(furan-2-yl)phenyl)-7-(1-methylcyclopropyl)-7H-pyrrolo[2,3-d]pyrimidine-5-carboxamide]",55%
19,"CCn1cc(C#Cc2c(C(=O)Nc3ccc(COC)cc3)c3c(N)ncnc3n2C2(C)CC2)cn1 [Example 118, 4-amino-6-((1-ethyl-1H-pyrazol-4-yl)ethynyl)-N-(4-(methoxymethyl)phenyl)-7-(1-methylcyclopropyl)-7H-pyrrolo[2,3-d]pyrimidine-5-carboxamide]",73%
20,"COCc1ccc(NC(=O)c2c(C#Cc3cccs3)n(C3(C)CC3)c3ncnc(N)c23)cc1 [Example 119, 4-amino-N-(4-(methoxymethyl)phenyl)-7-(1-methylcyclopropyl)-6-(thiophen-2-ylethynyl)-7H-pyrrolo[2,3-d]pyrimidine-5-carboxamide]",70%
